For series [1], the system named is core 2 GlcNAc-T.
Series [2] concerns CHO cells. In words: Proliferation (doubling time) of CHO cells in the presence of differentiation agents. The series is classed as cell-based, Chinese hamster.
In series [3] the test system is CHO cells. The series is described as follows: Cell morphology of CHO cells. The series is classed as cell-based, Chinese hamster.
The target of series [4] is T1, core 2 GlcNAc-T (Cricetulus griseus, UniProt A0A9J7GWB2).
T1 construct: The lysates were adjusted to 8-12 μg/μl protein with lysis solution and used as the source of transferases; endogenous in cells; host or cells: CHO cells (untreated or treated with differentiating agents), detergent lysate; in A6 freeze-thawed cells, pelleted membranes
T1 sequence (A0A9J7GWB2 1-428): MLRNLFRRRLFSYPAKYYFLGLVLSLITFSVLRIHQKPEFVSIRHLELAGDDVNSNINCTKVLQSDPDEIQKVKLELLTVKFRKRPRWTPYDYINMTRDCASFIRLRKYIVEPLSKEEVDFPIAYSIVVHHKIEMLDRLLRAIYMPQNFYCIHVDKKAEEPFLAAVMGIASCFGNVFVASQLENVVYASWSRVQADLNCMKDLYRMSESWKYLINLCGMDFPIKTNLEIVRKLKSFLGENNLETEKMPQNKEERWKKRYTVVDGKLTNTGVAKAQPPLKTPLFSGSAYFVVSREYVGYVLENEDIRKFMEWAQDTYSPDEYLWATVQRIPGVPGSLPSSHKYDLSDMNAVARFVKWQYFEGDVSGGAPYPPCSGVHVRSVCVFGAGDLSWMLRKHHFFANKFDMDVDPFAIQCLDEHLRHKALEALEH
The series is described as follows: Kinetic analysis of core 2 GlcNAc-T activity in CHO cell lysates. In kind it is biochemical, Chinese hamster. Conditions: butyrate+cholera toxin-treated versus untreated CHO cells.

Series [5] relates to core 2 GlcNAc-T. In words: Substrate Km for core 2 GlcNAc-T found in CHO and MDAY-D2 cell lysates. The series is classed as biochemical, Chinese hamster; murine.
For series [6], the system named is core 2 GlcNAc-T. Conditions: CHO and MDAY-D2 cell lysates; Yousefi et al (1991); cited from earlier work.
Another series deals with bovine β1-4Gal-T. The series is described as follows: Kinetics of the β1-4Gal-T reaction. The series is classed as biochemical. Conditions: 1 mU Gal-T, 5 min at 30° C.
The test system of series [7] is Ca^++ -dependent protein kinases. The note with it: cell-free assays; Hidaka et al, 1984; cited from earlier work.
The subject of series [8] is cAMP-dependent protein kinases. Conditions: cell-free assays; Hidaka et al, 1984; cited from earlier work.
For series [9] the following is noted: 2 hour incubation, lysates from control or butyrate+cholera toxin-treated cells.
The next series deals with cAMP. The series is classed as cell-based, Chinese hamster.
Series [10] concerns core 2 GlcNAc-T. The series is classed as biochemical, Chinese hamster.
Another series is described as follows: in vitro. Conditions: hamster, cho cells.
Setting [11] is: 1 μM actinomycin D, 5 μg/ml cycloheximide, 50 μM kinase inhibitors.

The source of these data is patent US5501957A, “Method for measuring glycosyltransferase activity” (priority 1994, dated 1996).

Where “and” joins values, the source holds several entries; their conditions need not be identical. Identical values can stand only once. Entries after “also recorded” stand apart in the source; their conditions may differ. Like-named read-outs stand apart in the source and are kept apart here.

Usually Km stands for the substrate concentration at which the rate is half of its maximum. For orientation: IC50 means the concentration that inhibits the measured activity by half. What is called viability is a per cent measure of how many cells are alive, often set against a control. A high value points to better survival.

Turning to `Nc1ncnc2c1nc(Br)n2[C@@H]1O[C@@H]2COP(=O)(O)O[C@H]2[C@H]1O` [8-bromo-cAMP], in the series with core 2 GlcNAc-T [1], the “effect on core 2 GlcNAc-T activity in CHO cells (in words)” value (from here on “effect … in CHO cells (in words)”) is recorded as “failed to induce enzyme activity”.
On to `C[S+](C)[O-]` [DMSO, dimethylsulfoxide], for which the “Doubling Time” value in the series on CHO cells [2] is 25 to 27 h; in the series on CHO cells [2] (average slopes of growth curves over 72 hours), 25 h. In addition, the “effect on cell proliferation (in words)” value is on record as “reductions in cell growth rates” in the series on CHO cells [2] and “slowed cell proliferation” in the series with CHO cells [2] (listed as dimethylsulfoxide). Moreover, the “changes in cell morphology (in words)” value in the series on CHO cells [3] is reported as “changes in cell morphology”; in the series on CHO cells [3] (listed as dimethylsulfoxide) it was “induced changes in cell morphology”. Besides, the “Core 2 GlcNAc-T activity” value in the series on core 2 GlcNAc-T [1] (24 h treatment) came to 9.6 pmol/mg/h; with core 2 GlcNAc-T [1] (48 h treatment) it was 11.2 pmol/mg/h; in the series with core 2 GlcNAc-T [1] (72 h treatment), 9.5 pmol/mg/h. The “B-1 Gal-T activity” value with β1-3Gal-T (24 h treatment) was found to be 9.1 nmoles/m/h; in the series with β1-3Gal-T (48 h treatment) it was 8.1 nmoles/m/h; in the series on β1-3Gal-T (72 h treatment) it was 5.6 nmoles/m/h.
On to `CC(=O)N[C@H]1[C@@H](Oc2ccc([N+](=O)[O-])cc2)O[C@H](CO)[C@H](O)[C@@H]1O[C@@H]1O[C@H](CO)[C@H](O)[C@H](O)[C@H]1O` [Galβ1-3GalNAcα-pNp], for which the “change in Km for the synthetic acceptor (in words)” value on core 2 GlcNAc-T [4] is recorded as “no changes in Km”. In the series on core 2 GlcNAc-T [5], the “fold by which substrate Km for β1-4Gal-T is lower than for core 2 GlcNAc-T” value turned out to be 5 fold. Further, in the series with core 2 GlcNAc-T [6], the Michaelis-Menten constant (Km) was 300 µM.
In the case of `COC(=O)CCCCCCCCO[C@@H]1O[C@H](CO[C@H]2O[C@H](CO)[C@@H](O)[C@H](O)[C@@H]2O[C@@H]2O[C@H](CO)[C@@H](O)[C@H](O)[C@H]2NC(C)=O)[C@@H](O)[C@H](O)[C@@H]1O` [GlcNAcβ1-2Manα1-6Manβ--O--(CH2)8 --COOCH3], the Km in the series on bovine β1-4Gal-T amounted to 45 µM.
For the molecule `CC1CNCCN1S(=O)(=O)c1cccc2cnccc12` (centres unmarked) [H-7], in the series with core 2 GlcNAc-T [1] (setting [11]), the “effect on induction of core 2 GlcNAc-T activity by butyrate (in words)” value (shortened to “effect on induction”) is “blocked induction of core 2 GlcNAc-T activity”. Besides, the IC50 in series [7] was 1 to 10 µM.
As to `CNCCNS(=O)(=O)c1cccc2cnccc12` [H-8], in the series with core 2 GlcNAc-T [1] (setting [11]), the “effect on induction” value was “blocked induction of core 2 GlcNAc-T activity”. For the same molecule, the half-inhibitory concentration (IC50) in [8] was 1 to 10 µM.
For `NC(N)=NCCNS(=O)(=O)c1cccc2cnccc12` [H-1004], in the series on core 2 GlcNAc-T [1], the “effect on induction” value is recorded as “had no effect”.
With `CC1=C(/C=C/C(C)=C/C=C/C(C)=C/C(=O)O)C(C)(C)CCC1` [RA, all-trans-retinoic acid], in the series on CHO cells [2], the “Doubling Time” value was 13 h. For the same molecule, the “effect … in CHO cells (in words)” value with core 2 GlcNAc-T [1] is “had no effect on activity”; with core 2 GlcNAc-T [1] (listed as retinoic acid), “Neither cholera toxin alone, retinoic acid, DMSO nor PMA had any effect on core 2 GlcNAc-T activity”.
`CCCCCCCCCCCCCC(=O)O[C@@H]1[C@@H](C)[C@@]2(O)[C@@H](C=C(CO)C[C@]3(O)C(=O)C(C)=C[C@@H]23)[C@@H]2C(C)(C)[C@]12OC(C)=O` [TPA, phorbol 12-myristate 13-acetate]: the “Doubling Time” value in the series with CHO cells [2] was determined as 13 h. In addition, the “effect … in CHO cells (in words)” value in the series with core 2 GlcNAc-T [1] (listed as PMA) is listed as “Neither cholera toxin alone, retinoic acid, DMSO nor PMA had any effect on core 2 GlcNAc-T activity”.
Turning to `CC(=O)N[C@H]1[C@@H](OP(=O)(O)OP(=O)(O)OC[C@H]2O[C@@H](n3ccc(=O)[nH]c3=O)[C@H](O)[C@@H]2O)O[C@H](CO)[C@@H](O)[C@@H]1O` [UDP-GlcNAc], the “fold by which substrate Km for β1-4Gal-T is lower than for core 2 GlcNAc-T” value with core 2 GlcNAc-T [5] is listed as 7 fold. Moreover, the UDP-GlcNAc remaining intact in series [9] is 93-95%. The Michaelis-Menten constant (Km) in the series with core 2 GlcNAc-T [6] is 500 µM.
For the molecule `CCCC(=O)[O-].[Na+]` [butyrate, sodium butyrate], in the series with CHO cells [2], the “Doubling Time” value is 25 to 27 h and 24 h; the “effect on cell proliferation (in words)” value is “reductions in cell growth rates; also recorded: slowed cell proliferation”. Besides, the “changes in cell morphology (in words)” value with CHO cells [3] was “induced changes in cell morphology”. Moreover, in the series with cAMP, the “delay of core 2 GlcNAc-T peaks after peaks in cytosolic cAMP” value is 8 to 12 h, the “effect on intracellular/cytosolic cAMP levels (in words)” value was “butyrate treatment increases intracellular cAMP levels; also recorded: elevated cytosolic cAMP levels”, the “time by which cAMP elevation preceded induction of core 2 GlcNAc-T activity” value is given as “approximately 8 h” and the “time of first peak of cAMP” value came to 12 h. The “time of second peak of cAMP” value in the series on cAMP was 72 h. Moreover, in the series with core 2 GlcNAc-T [10], the “core 2 GlcNAc-T activity, kinase +” value is recorded as 264.9 and the “core 2 GlcNAc-T activity, kinase -” value turned out to be 267.4. Besides, in the series on core 2 GlcNAc-T [1], the “effect … in CHO cells (in words)” value is listed as “only butyrate induced core 2 GlcNAc-T activity”; the “second peak of core 2 GlcNAc-T activity, higher than the 24 hours peak” value was “approximately 45%”; the “time of first peak (maximum) of core 2 GlcNAc-T activity” value came out at 24 h; the “time of second peak of core 2 GlcNAc-T activity” value was 84 h. The “core 2 GlcNAc-T activity greater than controls” value with core 2 GlcNAc-T [1] (cho cells, 2000 µM) is 10-20 times. The “fold increase in core 2 GlcNAc-T activity” value in the series with core 2 GlcNAc-T [1] (cho cells, 24 h) is on record as 16 fold. In the series with β1-3Gal-T (cho cells, 24 h, 2000 µM), the “increase in β1-3 Gal-T activity” value is recorded as “approximately 2 fold” and the “increase in β1-3Gal-T activity” value is listed as 2-3 times. In addition, the viability at 2000 µM in “in vitro” lay in the range of 90 to 95%.
Consider `CCCC(=O)Nc1ncnc2c1ncn2[C@@H]1O[C@@H]2COP(=O)(O)O[C@H]2[C@H]1OC(=O)CCC` [dibutyryl cAMP], for which the “effect … in CHO cells (in words)” value with core 2 GlcNAc-T [1] is recorded as “failed to induce enzyme activity”.
Take cholera toxin: the “effect on cell proliferation (in words)” value in the series with CHO cells [2] is given as “reductions in cell growth rates; also recorded: slowed cell proliferation”. In addition, in the series with CHO cells [3], the “changes in cell morphology (in words)” value is recorded as “induced changes in cell morphology”. Moreover, the “effect on intracellular/cytosolic cAMP levels (in words)” value in the series with cAMP was “enhanced both cytosolic cAMP concentrations and core 2 GlcNAc-T activity compared to butyrate-treatment alone”. Also, in the series with core 2 GlcNAc-T [1], the “additional increase in core 2 GlcNAc-T activity in butyrate-treated cells” value worked out at 2 fold; the “effect on core 2 GlcNAc-T activity of butyrate-treated cells (in words)” value is “enhanced both cytosolic cAMP concentrations and core 2 GlcNAc-T activity compared to butyrate-treatment alone”; the “enhancement of core 2 GlcNAc-T activity in butyrate-treated cells” value is given as 80%.
